# From patent publication US8263598B2, “Substituted sulfonamide compounds” (Gruenenthal GmbH, priority 2008, dated 2012)
# What was measured:
# [1] = target: T1, B1R receptor of rats (rB1R) (Rattus norvegicus, UniProt P97583); assay: FLIPR Ca2+ assay on rat bradykinin 1 receptor (CHO K1 rB1R cells); format: cell-based; settings: test substance 10 μM; CHO K1 cells with B1R gene of rats; agonist Des-Arg9-bradykinin 100 nM; compared to maximum achievable inhibition
# T1 construct: host or cells: CHO K1 cells
# T1 sequence (P97583 1-337): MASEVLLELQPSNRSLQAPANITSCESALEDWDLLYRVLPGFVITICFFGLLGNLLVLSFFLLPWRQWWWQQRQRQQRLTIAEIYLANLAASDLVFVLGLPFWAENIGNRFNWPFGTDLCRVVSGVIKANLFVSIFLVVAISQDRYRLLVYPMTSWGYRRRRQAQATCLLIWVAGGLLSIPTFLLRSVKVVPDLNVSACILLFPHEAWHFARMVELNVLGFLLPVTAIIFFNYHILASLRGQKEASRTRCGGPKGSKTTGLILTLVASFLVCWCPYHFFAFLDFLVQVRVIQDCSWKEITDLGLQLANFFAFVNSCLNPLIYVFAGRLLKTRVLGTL
# Procedure, shortened: (§1)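 CHO K1 cells stably expressing human or rat B1R were loaded with Fluo-4 and tested at 10 μM compound. Ca²⁺ signal was read in FLIPR as % activation versus agonist. After 10 min, agonist was added (hB1R: Lys-Des-Arg9-bradykinin 0.5 nM; rB1R: Des-Arg9-bradykinin 100 nM), and % inhibition was taken relative to maximum achievable inhibition.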
# [2] = target: T2, human B1R receptor (hB1R) (Homo sapiens, UniProt P46663); assay: FLIPR Ca2+ assay on human bradykinin 1 receptor (CHO K1 hB1R cells); format: cell-based; settings: test substance 10 μM; CHO K1 cells with human B1R gene; agonist Lys-Des-Arg9-bradykinin 0.5 nM; compared to maximum achievable inhibition
# T2 construct: host or cells: CHO K1 cells
# T2 sequence (P46663 1-353): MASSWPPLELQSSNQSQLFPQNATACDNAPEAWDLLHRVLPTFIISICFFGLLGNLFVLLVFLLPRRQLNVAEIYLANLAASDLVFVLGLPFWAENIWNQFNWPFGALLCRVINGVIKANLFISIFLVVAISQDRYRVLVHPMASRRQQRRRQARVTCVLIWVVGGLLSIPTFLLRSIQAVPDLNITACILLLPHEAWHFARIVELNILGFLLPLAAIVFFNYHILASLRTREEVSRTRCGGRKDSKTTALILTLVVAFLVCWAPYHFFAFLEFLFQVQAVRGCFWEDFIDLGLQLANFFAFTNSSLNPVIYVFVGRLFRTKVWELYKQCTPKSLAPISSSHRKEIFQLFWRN
# Procedure, shortened: as §1
SMILES,inhibition at 10 µM [1],inhibition at 10 µM [2]
"COc1cc(C)c(S(=O)(=O)N(C)CCOCC(=O)N2CCn3cccc3C2c2ccc(F)c(F)c2)c(C)c1C (centres unmarked) [Example 85, N-(2-(2-(1-(3,4-difluorophenyl)-3,4-dihydropyrrolo[1,2-a]pyrazin-2(1H)-yl)-2-oxoethoxy)ethyl)-4-methoxy-N,2,3,6-tetramethylbenzenesulfonamide]",92%,99%
"COc1cc(C)c(S(=O)(=O)N(CCOCC(=O)N2CCn3ccnc3C2)Cc2ccccc2)c(C)c1 [Example 46, N-benzyl-N-(2-(2-(5,6-dihydroimidazo[1,2-a]pyrazin-7(8H)-yl)-2-oxoethoxy)ethyl)-4-methoxy-2,6-dimethylbenzenesulfonamide]",96%,41%
"COc1cc(C)c(S(=O)(=O)N(CCOCC(=O)N2CCn3c(CN4CCOCC4)ccc3C2c2ccccc2)Cc2ccccc2)c(C)c1C (centres unmarked) [Example 117, N-benzyl-4-methoxy-2,3,6-trimethyl-N-(2-(2-(6-(morpholinomethyl)-1-phenyl-3,4-dihydropyrrolo[1,2-a]pyrazin-2(1H)-yl)-2-oxoethoxy)ethyl)benzene-sulfonamide]",88%,82%
"COc1cc(C)c(S(=O)(=O)N(CCOCC(=O)N2CCn3c(CN4CCCC4)ccc3C2c2ccccc2)CC(C)C)c(C)c1C (centres unmarked) [Example 92, N-isobutyl-4-methoxy-2,3,6-trimethyl-N-(2-(2-oxo-2-(1-phenyl-6-(pyrrolidin-1-ylmethyl)-3,4-dihydropyrrolo[1,2-a]pyrazin-2(1H)-yl)ethoxy)ethyl)benzene-sulfonamide]",102%,102%
"COc1c(C)cc(S(=O)(=O)N(C)CCOCC(=O)N2CCn3cccc3C2c2ccc(C)c(C)c2)c(C)c1C (centres unmarked) [Example 34, N-(2-(2-(1-(3,4-dimethylphenyl)-3,4-dihydropyrrolo[1,2-a]pyrazin-2(1H)-yl)-2-oxoethoxy)ethyl)-4-methoxy-N,2,3,5-tetramethylbenzenesulfonamide]",42%,58%
"O=C(CC(NS(=O)(=O)c1ccc2ccccc2c1)c1ccccc1)N1CCn2c(Cc3cccnc3)ccc2C1 (centres unmarked) [Example 176, N-(3-Oxo-1-phenyl-3-(6-(pyridin-3-ylmethyl)-3,4-dihydropyrrolo[1,2-a]pyrazin-2(1H)-yl)propyl)naphthalene-2-sulfonamide]",87%,45%
"Cc1cc(C)c(S(=O)(=O)N(C)CCOCC(=O)N2CCn3cccc3C2c2ccc(Cl)nc2)c(C)c1 (centres unmarked) [Example 68, N-(2-(2-(1-(6-chloropyridin-3-yl)-3,4-dihydropyrrolo[1,2-a]pyrazin-2(1H)-yl)-2-oxoethoxy)ethyl)-N,2,4,6-tetramethylbenzenesulfonamide]",100%,101%
"COc1c(C)cc(S(=O)(=O)N(C)CCOCC(=O)N2CCn3cccc3C2c2cccc(C(F)(F)F)c2)c(C)c1C (centres unmarked) [Example 37, 4-methoxy-N,2,3,5-tetramethyl-N-(2-(2-oxo-2-(1-(3-(trifluoromethyl)phenyl)-3,4-dihydropyrrolo[1,2-a]pyrazin-2(1H)-yl)ethoxy)ethyl)benzenesulfonamide]",72%,38%
"COc1cc(C)c(S(=O)(=O)N(C)CCOCC(=O)N2CCn3cccc3C2c2cccs2)c(C)c1C (centres unmarked) [Example 88, 4-methoxy-N,2,3,6-tetramethyl-N-(2-(2-oxo-2-(1-(thiophen-2-yl)-3,4-dihydropyrrolo[1,2-a]pyrazin-2(1H)-yl)ethoxy)ethyl)benzenesulfonamide]",98%,101%
"Cc1cc(C)c(S(=O)(=O)N(C)CCOCC(=O)N2CCn3cccc3C2c2cccc(F)c2)c(C)c1 (centres unmarked) [Example 73, N-(2-(2-(1-(3-fluorophenyl)-3,4-dihydropyrrolo[1,2-a]pyrazin-2(1H)-yl)-2-oxoethoxy)ethyl)-N,2,4,6-tetramethylbenzenesulfonamide]",99%,102%
"Cc1cc(C)c(S(=O)(=O)N(C)CCOCC(=O)N2CCn3c(CN4CCCCC4)ccc3C2c2ccccc2)c(C)c1 (centres unmarked) [Example 141, N,2,4,6-tetramethyl-N-(2-(2-oxo-2-(1-phenyl-6-(piperidin-1-ylmethyl)-3,4-dihydropyrrolo[1,2-a]pyrazin-2(1H)-yl)ethoxy)ethyl)benzenesulfonamide]",101%,103%
"CCC1c2ccc(CN(C)C)n2CCN1C(=O)COCCN(C)S(=O)(=O)c1cc(C)c(OC)c(C)c1C (centres unmarked) [Example 113, N-(2-(2-(6-((dimethylamino)methyl)-1-ethyl-3,4-dihydropyrrolo[1,2-a]pyrazin-2(1H)-yl)-2-oxoethoxy)ethyl)-4-methoxy-N,2,3,5-tetramethylbenzenesulfonamide]",93%,103%
"CCC1c2ccc(C)n2CCN1C(=O)COCCN(CC(C)C)S(=O)(=O)c1c(C)cc(OC)c(C)c1C (centres unmarked) [Example 103, N-(2-(2-(1-ethyl-6-methyl-3,4-dihydropyrrolo[1,2-a]pyrazin-2(1H)-yl)-2-oxoethoxy)ethyl)-N-isobutyl-4-methoxy-2,3,6-trimethylbenzenesulfonamide]",102%,101%
"CCC1c2ccc(CN(C)C)n2CCN1C(=O)COCCN(Cc1ccccc1)S(=O)(=O)c1c(C)cc(OC)cc1C (centres unmarked) [Example 131, N-benzyl-N-(2-(2-(6-((dimethylamino)methyl)-1-ethyl-3,4-dihydropyrrolo[1,2-a]pyrazin-2(1H)-yl)-2-oxoethoxy)ethyl)-4-methoxy-2,6-dimethylbenzene-sulfonamide]",101%,101%
"Cc1cc(C)c(S(=O)(=O)N(C)CCOCC(=O)N2CCn3c(CN(C)C)ccc3C2c2cccs2)c(C)c1 (centres unmarked) [Example 144, N-(2-(2-(6-((dimethylamino)methyl)-1-(thiophen-2-yl)-3,4-dihydropyrrolo[1,2-a]pyrazin-2(1H)-yl)-2-oxoethoxy)ethyl)-N,2,4,6-tetramethylbenzenesulfonamide]",104%,104%
"COc1cc(C)c(S(=O)(=O)N(C)CCOCC(=O)N2CCn3c(ccc3-c3ccncc3)C2)c(C)c1 [Example 177, 4-Methoxy-N,2,6-trimethyl-N-(2-(2-oxo-2-(6-(pyridin-4-yl)-3,4-dihydropyrrolo[1,2-a]pyrazin-2(1H)-yl)ethoxy)ethyl)benzenesulfonamide]",97%,99%
"CCCCC1c2ccc(CN(C)C)n2CCN1C(=O)COCCN(C)S(=O)(=O)c1c(C)cc(OC)cc1C (centres unmarked) [Example 134, N-(2-(2-(1-butyl-6-((dimethylamino)methyl)-3,4-dihydropyrrolo[1,2-a]pyrazin-2(1H)-yl)-2-oxoethoxy)ethyl)-4-methoxy-N,2,6-trimethylbenzenesulfonamide]",103%,104%
"CCCC1c2cccn2CCN1C(=O)COCCN(CC(C)C)S(=O)(=O)c1c(C)cc(OC)c(C)c1C (centres unmarked) [Example 101, N-isobutyl-4-methoxy-2,3,6-trimethyl-N-(2-(2-oxo-2-(1-propyl-3,4-dihydropyrrolo[1,2-a]pyrazin-2(1H)-yl)ethoxy)ethyl)benzenesulfonamide]",102%,91%
"COc1cc(C)c(S(=O)(=O)N(CCOCC(=O)N2CCn3c(C)ccc3C2C(C)C)CC(C)C)c(C)c1C (centres unmarked) [Example 104, N-isobutyl-N-(2-(2-(1-isopropyl-6-methyl-3,4-dihydropyrrolo[1,2-a]pyrazin-2(1H)-yl)-2-oxoethoxy)ethyl)-4-methoxy-2,3,6-trimethylbenzenesulfonamide]",102%,93%
"O=C(CC(NS(=O)(=O)c1ccc2ccccc2c1)c1ccccc1)N1CCn2c(CCc3cccnc3)ccc2C1 (centres unmarked) [Example 171, N-(3-Oxo-1-phenyl-3-(6-(2-(pyridin-3-yl)ethyl)-3,4-dihydropyrrolo[1,2-a]pyrazin-2(1H)-yl)propyl)naphthalene-2-sulfonamide]",99%,30%
"CCCC1c2cccn2CCN1C(=O)COCCN(C)S(=O)(=O)c1cc(C)c(OC)c(C)c1C (centres unmarked) [Example 115, 4-methoxy-N,2,3,5-tetramethyl-N-(2-(2-oxo-2-(1-propyl-3,4-dihydropyrrolo[1,2-a]pyrazin-2(1H)-yl)ethoxy)ethyl)benzenesulfonamide]",97%,91%
"COc1cc(C)c(S(=O)(=O)N(C)CCOCC(=O)N2CCn3cccc3C2C)c(C)c1 (centres unmarked) [Example 53, 4-methoxy-N,2,6-trimethyl-N-(2-(2-(1-methyl-3,4-dihydropyrrolo[1,2-a]pyrazin-2(1H)-yl)-2-oxoethoxy)ethyl)benzenesulfonamide]",99%,101%
